Source: patent US6699676B1, “Uses of ouabain and ouabain-like molecules in apoptosis related pathologies” (Corporation du Centre de Recherche du Centre, Hospitalier …, priority 1999, dated 2004)

Key:
VSMC-E1A = assay: Chromatin cleavage assay in VSMC-E1A; assay type: cell-based, rat; conditions: VSMC-E1A; for Increment of chromatin fragments triggered by serum withdrawal(%): 1 mM, pretreated 2 hours then 3 hours with or without calf serum, control increment taken as 100%
Method: FIG. 2. Effect of ouabain on chromatin cleavage in VSMC-E1A. (A) Kinetics of the accumulation of chromatin fragments in control (curves 1, 3) and ouabain-treated (curves 2, 4) VSMC-E1A in the presence of 10% calf serum (CS, curves 1, 2) or in CS-free medium (curves 3, 4). Mean values ±S.E. obtained in experiments performed in quadruplicate are given. (B) Content of chromatin fragments in VSMC-E1A subjected to 6 hr of incubation in serum-supplied medium with or without 1 mM ouabain, 0.25 μM staurosporine, 1 μM okadaic acid and 350 mM mannitol. Mean values±S.E. obtained in 3 experiments performed in quadruplicate are given. ★, ★★ p<0.05 and 0.001 compared to ouabain-untreated cells. In both experiments, ouabain was added 1 hour before triggering of apoptosis.
Cells were incubated in K^+-containing medium consisting of 91 mM NaCl, 5 mM KCl, 0.9 mM NaH2PO4, 44 mM NaHCO3, 1.8 mM CaCl2, 0.8 mM MgCl2, 33 mM HEPES and 5 mM D-glucose (pH 7.4) (lines 1 and 2) or in K^+-depleted medium (equimolar substitution of KCl by NaCl, line 3) with or without 10% calf serum (CS) and 1 mM ouabain as indicated. In experiments with VSMC-MYC and VSMC-E1A, cells were preincubated for 1 hr with ouabain or with K^+-depleted medium in the presence of CS and then subjected to treatment with serum-free media. After 24 hours (VSMC) or 6 hours (VSMC-MYC and VSMC-E1A), the content of chromatin fragments was measured as described in Experimental Procedures. Mean values±S.E. obtained in 3 experiments performed in quadruplicate (VSMC) or triplicate (VSMC-MYC, VSMC-E1A) are given. ★, ★★ p<0.05 and 0.001 compared to the controls.
To estimate chromatin cleavage, cells were incubated for 1 hr in the presence of 10% calf serum (CS) in the control solution (DMEM, [Na^+]=137 mM; [K^+]=5 mM—line 1) or under equimolar substitution of NaCl by KCl ([Na^+]=14 mM; [K^+]=128 mM—line 2) with or without 1 mM ouabain and then for an additional 6 hours in the same media with or without CS. Intracellular Na^+ and K^+ content was measured as steady-state distribution of isotopes after 24 hours preincubation of cells in control Na^+-enriched solution containing 0.5 μCi/ml ^86Rb or 2 μCilml ^22Na, and additional 6 hours incubation in Na^+—(line 1) or K^+—(line 2) enriched medium, containing 10% CS and isotopes with the same specific activity with or without 1 mM ouabain. For more details see Experimental Procedures. Mean values±S.E. obtained in 3 experiments performed in triplicate (ion content) or quadruplicate (chromatin cleavage) are given. ★p<0.001 compared to ouabain-untreated cells.
VSMC-E1A cells were pretreated with compounds indicated in the left column during 2 hours in DMEM containing 10% calf serum and then additional 3 hours in the absence or presence of calf serum. The increment of the content of chromatin fragments triggered by serum withdrawal in control cells was taken as 100%. Means+S.E. from experiments performed with quadruplicate are given. ★p<0.001 as compared to control.
(§1) Cells. VSMC were obtained by explant methods from aortas of 10- to 13-week-old male rats as described previously (17), cultured in DMEM with 10% calf serum, 100 U/ml penicillin, 100 µg/ml streptomycin and used between 10 to 16 passages. Cells transfected with c-myc (VSMC-MYC) and E1A-adenovirus (VSMC-E1A) were obtained in accordance with a previously-described protocol (18,19) and were cultured in the same medium with the addition of 500 µg/ml genticin. Jurkat cells were obtained from the American Type Culture Collection and cultured in RPMI 1640 medium supplied with 10% calf serum, antibiotics, sodium pyruvate, glutamate and β-mercaptoethanol.
Chromatin cleavage assay. Chromatin cleavage in VSMC was estimated by a technique described previously in detail (10). Briefly, VSMC grown in 24-well dishes were labeled for 24 hours in serum-supplied DMEM with [^3H]-thymidine (1 μCi/ml), washed with 2×2 ml of DMEM and incubated in serum-supplied DMEM. […]

caspase-1 = biological target: T1, caspase-1 (Rattus norvegicus, UniProt P43527); assay type: biochemical; conditions: lysates of VSMC-E1A after 6 hours serum withdrawal, 100 mM added, data not shown
T1 construct: we measured the activity of caspases in lysates of VSMC-E1A subjected to 6 hours serum withdrawal; endogenous in cells; host or cells: VSMC-E1A (rat aortic vascular smooth muscle cells transfected with E1A adenoviral protein), cell lysate
T1 sequence (P43527 119-402): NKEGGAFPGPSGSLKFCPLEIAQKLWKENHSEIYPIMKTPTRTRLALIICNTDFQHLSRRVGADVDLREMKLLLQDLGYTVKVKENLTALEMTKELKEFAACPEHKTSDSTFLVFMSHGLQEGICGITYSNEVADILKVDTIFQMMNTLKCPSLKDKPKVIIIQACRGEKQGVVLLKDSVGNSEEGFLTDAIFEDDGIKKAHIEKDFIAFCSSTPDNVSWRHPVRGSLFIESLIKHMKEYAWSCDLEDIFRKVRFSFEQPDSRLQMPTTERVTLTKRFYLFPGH
Method: (§2) To examine this hypothesis, we measured the activity of caspases in lysates of VSMC-E1A subjected to 6 hours serum withdrawal has been measured.
(§3) Caspase activity. VSMC-E1A seeded in 20 cm^2 flasks and treated as indicated in FIG. 5 were scratched, transferred to centrifuge tubes, washed twice with PBS and lysed in 0.5 ml of buffer A contaming 50 mM tris-HCl (pH 7.4), 5 mM MgCl2, 1 mM EGTA and 0.1% CHAPS. Then, 50-100 μl of cell lysate was mixed with 600 μl of buffer A containing 1 mM dithiothreitol, 40 μM YVAD-AMC or DEVD-AMC with or without 1 μM of caspase-1 and capspase-3 inhibitors (Ac-YVAD-CHO and Ac-DEVD-CHO, respectively), incubated for 2 hours at 37° C. and diluted 15-fold with 80 mM glycine-NaOH buffer (pH 10). Fluorescence of the samples was measured at ex=365 run and em=465 run and calibrated with AMC in the range of 10 to 100 nM. To measure caspase activity in control and ouabain-treated Jurkat cells, 5 ml of suspension containing ˜2×10^7 cells was transferred onto ice and sedimented. The pellet of cells was washed and treated with 0.3 ml of medium A in the same way as VSMC. Protein content was estimated by Bradford methods.

caspase-3 [1] = assay type: biochemical, rat; conditions: lysates of VSMC-E1A after 6 hours serum withdrawal, 100 mM added, data not shown
Method: as §2, §3

caspase-3 [2] = assay: Caspase-3 activity in treated VSMC-E1A; assay type: cell-based, rat; conditions: 6 hours, staurosporine 0.25 μM, okadaic acid 1 μM
Method: (§4) FIG. 5. Effect of ouabain on caspase-3 activity in VSMC-E1A (A) and Jurkat cells (B). VSMC-E1A and Jurkat cells were pretreated with 1 mM ouabain for 1 and 2 hours, respectively, and the additions indicated below the bars were delivered in media with 10% calf serum and with the baseline (137/5) or inverse (14/128) [Na^+]o/[K^+]o ratio for 6 (VSMC-E1A) or 3 hours (Jurkat cells). In experiments with VSMC-E1A, calf serum (CS) was omitted where indicated (−). Abbreviations: staur.—staurosporine (0.25 μM), ok.ac.—okadaic acid (1 μM), mann.—mannitol (350 mM); Fas-L—Fas ligand (100 ng/ml). Mean values±S.E. obtained in experiments performed in quadruplicate (A) or triplicate (B) are given. ★p<0.001 compared to ouabain-untreated cells.
as §3

Jurkat cells = assay: Chromatin cleavage assay in Jurkat cells; assay type: cell-based, human; conditions: for Chromatin fragments (%): Jurkat cells without ouabain, +Fas-L 100 ng/ml, 7 hours
Method: FIG. 4. Effect of ouabain on chromatin cleavage in Jurkat cells. (A) Kinetics of accumulation of chromatin fragments in control (curves 1, 3) and ouabain-treated (curves 2, 4) cells in the absence (curves 1, 2) or presence (curves 3, 4) of 100 ng/ml of anti-human Fas (mouse monoclonal IgM, Upstate Biotechnology, Lake Placid, N.Y.); (B) Content of chromatin fragments in Jurkat cells subjected to 3 hours of incubation with or without 1 mM ouabain, 0.25 μM staurosporine and 350 mM mannitol. In both experiments, ouabain was added 2 hours before triggering of apoptosis. Mean values±S.E. obtained in experiments performed in triplicate are given.
To estimate chromatin cleavage, cells were incubated for 2 hours in the presence of 10% calf serum in the control solution (DMEM, [Na^+]=137 mM; [K^+]=5 mM—line 1) or under equimolar substitution of NaCl with KCl ([Na^+]=14 mM; [K^+]=128 mM—line 2) with or without 1 mM ouabain and then for an additional 7 hours at the same media with or without 100 ng/ml Fas ligand (Fas-L). Intracellular Na^+ and K^+ content was measured as steady-state distribution of isotopes after 24 hours preincubation of cells in control Na^+-enriched solution containing 0.5 μCi/ml ^86Rb or 2 μCi/ml ^22Na, and an additional 6 hours incubation in Na^+—(line 1) or K^+—(line 2) enriched medium containing 10% calf serum, isotopes with the same specific activity with or without 1 mM ouabain. For more details see Experimental Procedures. Mean values±S.E. obtained in experiments performed in triplicate are given. ★, #p<0.01 and 0.001 compared to ouabain-untreated cells.
as §1
Chromatin cleavage assay. Chromatin cleavage in VSMC was estimated by a technique described previously in detail (10). Briefly, VSMC grown in 24-well dishes were labeled for 24 hours in serum-supplied DMEM with [^3H]-thymidine (1 μCi/ml), washed with 2×2 ml of DMEM and incubated in serum-supplied DMEM. In 48 hr, the cells were pretreated with ouabain or K^+-depleted medium as indicated in FIG. 2 and Table 3, washed twice with serum-containing medium and incubated with 0.5 ml of medium with or without ouabain and containing different inducers of apoptosis. To measure the content of chromatin fragments, the cells were transferred on ice and 1 ml of ice-cold lysed buffer (10 mM EDTA, 10 mM tris-HCl, 0.5% triton X100 (pH 8.0)) was added. After 15 min, the cell lysate was transferred to Ependorf tubes, sedimented (12,000 rpm, 10 mm), and 1 ml of supernatant was transferred for the measurement of radioactivity (A1t). The remaining radioactivity from pellets and wells was extracted with 0.5 ml of 1% SDS/4 mM EDTA mixture, combined and counted (A2). Chromatin cleavage was quantified as the content of chromatin fragments normalized by total content of [^3H]-labeled DNA in accordance with the equation [1.5×(A1t−A1o)/(A2+A1t−1.5A1o)]×100% where A1o is the value of A1t before induction of apoptosis. To measure chromatin fragmentation in [^3H]-thymidine-labeled Jurkat cells, they were resuspended at a density of 10^6 cells/ml in medium containing 10% calf serum and the additions indicated in FIG. 4 and Table 4. At the time intervals shown in FIG. 4, 100 μl of cell suspension was mixed with 100 μl of PBS contairung 0.5% triton X100, and the content of chromatin fragments was measured as described previously in detail (20).

caspase-3 [3] = assay: Caspase-3 activity in treated Jurkat cells; assay type: cell-based, human; conditions: 3 hours, Fas ligand 100 ng/ml, staurosporine 0.25 μM, mannitol 350 mM
Method: as §4, §3

## C[C@H]1O[C@@H](O[C@H]2[C@@H](O)C[C@H](O[C@H]3[C@@H](O)C[C@H](O[C@H]4CC[C@@]5(C)[C@H](CC[C@@H]6[C@@H]5CC[C@]5(C)[C@@H](C7=CC(=O)OC7)CC[C@]65O)C4)O[C@@H]3C)O[C@@H]2C)C[C@H](O)[C@@H]1O [Digitoxin, 5β,20[22]-cardenolide-3β,14-diol-3[O-2,6-dideoxy-β-D-ribohexopyranosyl-(1->4)-2,3-dideoxy-β-D-ribohexo-pyranosyl]oxy]
VSMC-E1A
  Increment of chromatin fragments triggered by serum withdrawal(%): 24 ± 6 %

## C[C@H]1O[C@@H](O[C@H]2[C@@H](O)C[C@H](O[C@H]3[C@@H](O)C[C@H](O[C@H]4CC[C@@]5(C)[C@H](CC[C@@H]6[C@@H]5C[C@@H](O)[C@]5(C)[C@@H](C7=CC(=O)OC7)CC[C@]65O)C4)O[C@@H]3C)O[C@@H]2C)C[C@H](O)[C@@H]1O [Digoxin, 12β-hydroxy-digitoxin]
VSMC-E1A
  Increment of chromatin fragments triggered by serum withdrawal(%): 18 ± 4 %

## [Cl-].[K+] [KCl]
caspase-1
  decrease of caspase-1 activity: 10-20%
caspase-3 [1]
  decrease of caspase-3 activity: 10-20%

## [Cl-].[Na+] [NaCl]
caspase-1
  decrease of caspase-1 activity: the same level of inhibition
caspase-3 [1]
  decrease of caspase-3 activity: the same level of inhibition

## C[N+](C)(C)CCO.[Cl-] [choline chloride]
caspase-1
  decrease of caspase-1 activity: the same level of inhibition
caspase-3 [1]
  decrease of caspase-3 activity: the same level of inhibition

## C=C1[C@@H](O)[C@@H]2O[C@]3(CC[C@H](/C=C/[C@@H](C)[C@@H]4CC(C)=C[C@@]5(O[C@H](C[C@@](C)(O)C(=O)O)CC[C@H]5O)O4)O3)CC[C@H]2O[C@@H]1[C@@H](O)C[C@H](C)[C@H]1O[C@@]2(CCCCO2)CC[C@H]1C [okadaic acid]
VSMC-E1A; 6 hr, serum-supplied medium, 0.25 μM staurosporine, 1 μM okadaic acid
  content of chromatin fragments: 28.3±4.2%
caspase-3 [2]
  increase of caspase-3 activity: 10 fold

## Fas ligand
Jurkat cells; medium [Na+]o=14, [K+]o=128 mM
  Chromatin fragments (%): 20.0±2.2%
Jurkat cells; medium [Na+]o=14, [K+]o=128 mM, listed as Fas-L
  Chromatin fragments (%): 20.2%
Jurkat cells; medium [Na+]o=137, [K+]o=5 mM
  Chromatin fragments (%): 28.5±3.3%
Jurkat cells; medium [Na+]o=137, [K+]o=5 mM, listed as Fas-L
  Chromatin fragments (%): 28.5%
Jurkat cells; Jurkat cells, 1.5 hour incubation with Fas ligand 100 ng/ml
  increase of the content of chromatin fragments: 10 fold
Jurkat cells; control Jurkat cells, 7-hr incubation
  increment of the content of chromatin fragments triggered by Fas ligand: 23.6±3.9%
caspase-3 [3]
  increase of caspase-3 activity: ~30 fold
